According to ChEMBL document CHEMBL4251568, “A routinely used protein staining dye acts as an inhibitor of wild type and mutant alpha-synuclein aggregation and modulator of neurotoxicity” (Eur J Med Chem, 2018):

Assays:
[1] = system: SH-SY5Y; experiment: Cytotoxicity against human SH-SY5Y cells assessed as cell viability after 24 hrs by LDH release assay; assay type: cell-based
[2] = Cytotoxicity against human SH-SY5Y cells assessed as cell viability after 24 hrs by MTT assay; assay type: cell-based; conditions: read-out: Activity

## CCOc1ccc(Nc2ccc(C(=C3C=CC(=[N+](CC)Cc4cccc(S(=O)(=O)[O-])c4)C=C3)c3ccc(N(CC)Cc4cccc(S(=O)(=O)[O-])c4)cc3)cc2)cc1.[Na+]
[1]
  Activity: Non-Toxic
[2]
  viability at 24 h: 99%

## CCOc1ccc(Nc2ccc(/C(=C3C=C/C(=[N+](/CC)Cc4cccc(S(=O)(=O)[O-])c4)C=C/3C)c3ccc(N(CC)Cc4cccc(S(=O)(=O)[O-])c4)cc3C)cc2)cc1.[Na+] [BRILLIANT BLUE G]
[1]
  Activity: Toxic
[2]
  viability at 24 h: 19%
